According to ChEMBL document CHEMBL1138028, “Synthesis and HIV-1 integrase inhibitory activity of dimeric and tetrameric analogs of indolicidin” (Bioorg Med Chem Lett, 2004):
pIC50: −log10 of the molar value.

Key:
[1] = target: T1, Human immunodeficiency virus type 1 integrase (Human immunodeficiency virus 1, UniProt Q7ZJM1); test: Concentration required for inhibition of HIV-1 integrase mediated strand transfer
[2] = target: T1, Human immunodeficiency virus type 1 integrase; test: Concentration required for inhibition of HIV-1 integrase mediated 3'-end processing

T1 sequence (Q7ZJM1 whole entry): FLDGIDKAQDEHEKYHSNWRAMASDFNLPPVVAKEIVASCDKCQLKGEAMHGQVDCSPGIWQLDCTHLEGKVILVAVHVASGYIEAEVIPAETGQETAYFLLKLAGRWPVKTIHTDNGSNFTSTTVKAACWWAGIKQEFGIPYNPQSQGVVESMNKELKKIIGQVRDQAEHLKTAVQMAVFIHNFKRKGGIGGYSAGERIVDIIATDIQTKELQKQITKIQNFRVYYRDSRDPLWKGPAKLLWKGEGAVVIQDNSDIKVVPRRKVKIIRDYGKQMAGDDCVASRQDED

| pIC50 [1] | pIC50 [2] | Molecule |
| --- | --- | --- |
| 6.22 | 6.22 | CC[C@H](C)[C@H](N)C(=O)N[C@@H](CC(C)C)C(=O)N1CCC[C@H]1C(=O)N[C@@H](Cc1c[nH]c2ccccc12)C(=O)N[C@@H](CCCCN)C(=O)N[C@@H](Cc1c[nH]c2ccccc12)C(=O)N1CCC[C@H]1C(=O)N[C@@H](Cc1c[nH]c2ccccc12)C(=O)N[C@@H](Cc1c[nH]c2ccccc12)C(=O)N1CCC[C@H]1C(=O)N[C@@H](Cc1c[nH]c2ccccc12)C(=O)N1CCC[C@H]1C(=O)N1CCC[C@H]1C(=O)NCCCCC(NC(=O)[C@@H]1CCCN1C(=O)[C@@H]1CCCN1C(=O)[C@H](Cc1c[nH]c2ccccc12)NC(=O)[C@@H]1CCCN1C(=O)[C@H](Cc1c[nH]c2ccccc12)NC(=O)[C@H](Cc1c[nH]c2ccccc12)NC(=O)[C@@H]1CCCN1C(=O)[C@H](Cc1c[nH]c2ccccc12)NC(=O)[C@H](CCCCN)NC(=O)[C@H](Cc1c[nH]c2ccccc12)NC(=O)[C@@H]1CCCN1C(=O)[C@H](CC(C)C)NC(=O)[C@@H](N)[C@@H](C)CC)C(=O)NCCCCC(NC(=O)C(CCCCNC(=O)[C@@H]1CCCN1C(=O)[C@@H]1CCCN1C(=O)[C@H](Cc1c[nH]c2ccccc12)NC(=O)[C@@H]1CCCN1C(=O)[C@H](Cc1c[nH]c2ccccc12)NC(=O)[C@H](Cc1c[nH]c2ccccc12)NC(=O)[C@@H]1CCCN1C(=O)[C@H](Cc1c[nH]c2ccccc12)NC(=O)[C@H](CCCCN)NC(=O)[C@H](Cc1c[nH]c2ccccc12)NC(=O)[C@@H]1CCCN1C(=O)[C@H](CC(C)C)NC(=O)[C@H](N)[C@@H](C)CC)NC(=O)[C@@H]1CCCN1C(=O)[C@@H]1CCCN1C(=O)[C@H](Cc1c[nH]c2ccccc12)NC(=O)[C@@H]1CCCN1C(=O)[C@H](Cc1c[nH]c2ccccc12)NC(=O)[C@H](Cc1c[nH]c2ccccc12)NC(=O)[C@@H]1CCCN1C(=O)[C@H](Cc1c[nH]c2ccccc12)NC(=O)[C@H](CCCCN)NC(=O)[C@H](Cc1c[nH]c2ccccc12)NC(=O)[C@@H]1CCCN1C(=O)[C@H](CC(C)C)NC(=O)[C@@H](N)[C@@H](C)CC)C(N)=O (stereo not given in full) |
| 5.64 | 5.64 | CC[C@H](C)[C@@H](N)C(=O)N[C@H](CC(C)C)C(=O)N1CCC[C@@H]1C(=O)N[C@H](Cc1c[nH]c2ccccc12)C(=O)N[C@H](CCCCN)C(=O)N[C@H](Cc1c[nH]c2ccccc12)C(=O)N1CCC[C@@H]1C(=O)N[C@H](Cc1c[nH]c2ccccc12)C(=O)N[C@H](Cc1c[nH]c2ccccc12)C(=O)N1CCC[C@@H]1C(=O)N[C@H](Cc1c[nH]c2ccccc12)C(=O)N1CCC[C@@H]1C(=O)N1CCC[C@@H]1C(=O)NCCCCC(NC(=O)[C@H]1CCCN1C(=O)[C@H]1CCCN1C(=O)[C@@H](Cc1c[nH]c2ccccc12)NC(=O)[C@H]1CCCN1C(=O)[C@@H](Cc1c[nH]c2ccccc12)NC(=O)[C@@H](Cc1c[nH]c2ccccc12)NC(=O)[C@H]1CCCN1C(=O)[C@@H](Cc1c[nH]c2ccccc12)NC(=O)[C@@H](CCCCN)NC(=O)[C@@H](Cc1c[nH]c2ccccc12)NC(=O)[C@H]1CCCN1C(=O)[C@@H](CC(C)C)NC(=O)[C@H](N)[C@@H](C)CC)C(N)=O (stereo not given in full) |
| 4.72 | 4.31 | CC[C@H](C)[C@H](N)C(=O)N[C@@H](CC(C)C)C(=O)N1CCC[C@H]1C(=O)N[C@@H](Cc1c[nH]c2ccccc12)C(=O)NCC(=O)N[C@@H](Cc1c[nH]c2ccccc12)C(=O)N1CCC[C@H]1C(=O)N[C@@H](Cc1c[nH]c2ccccc12)C(=O)N[C@@H](Cc1c[nH]c2ccccc12)C(=O)N1CCC[C@H]1C(=O)N[C@@H](Cc1c[nH]c2ccccc12)C(=O)N[C@@H](CCCN=C(N)N)C(=O)N[C@@H](CCCN=C(N)N)C(N)=O |
| 5.31 | 5.55 | CC[C@H](C)[C@H](N)C(=O)N[C@@H](CC(C)C)C(=O)N1CCC[C@H]1C(=O)N[C@@H](Cc1c[nH]c2ccccc12)C(=O)N[C@@H](CCCCN)C(=O)N[C@@H](Cc1c[nH]c2ccccc12)C(=O)N1CCC[C@H]1C(=O)N[C@@H](Cc1c[nH]c2ccccc12)C(=O)N[C@@H](Cc1c[nH]c2ccccc12)C(=O)N1CCC[C@H]1C(=O)N[C@@H](Cc1c[nH]c2ccccc12)C(=O)N1CCC[C@H]1C(=O)N1CCC[C@H]1C(=O)NCCCCC(NC(=O)[C@@H]1CCCN1C(=O)[C@@H]1CCCN1C(=O)[C@H](Cc1c[nH]c2ccccc12)NC(=O)[C@@H]1CCCN1C(=O)[C@H](Cc1c[nH]c2ccccc12)NC(=O)[C@H](Cc1c[nH]c2ccccc12)NC(=O)[C@@H]1CCCN1C(=O)[C@H](Cc1c[nH]c2ccccc12)NC(=O)[C@H](CCCCN)NC(=O)[C@H](Cc1c[nH]c2ccccc12)NC(=O)[C@@H]1CCCN1C(=O)[C@H](CC(C)C)NC(=O)[C@@H](N)[C@@H](C)CC)C(N)=O (stereo not given in full) |
| 4.24 | 4.22 | CC[C@H](C)[C@H](N)C(=O)N[C@@H](CC(C)C)C(=O)N1CCC[C@H]1C(=O)N[C@@H](Cc1c[nH]c2ccccc12)C(=O)N[C@@H](CCCCN)C(=O)N[C@@H](Cc1c[nH]c2ccccc12)C(=O)N1CCC[C@H]1C(=O)N[C@@H](Cc1c[nH]c2ccccc12)C(=O)N[C@@H](Cc1c[nH]c2ccccc12)C(=O)N1CCC[C@H]1C(=O)N[C@@H](Cc1c[nH]c2ccccc12)C(=O)N[C@@H](CCCN=C(N)N)C(=O)N[C@@H](CCCN=C(N)N)C(N)=O [Indolicidin] |
| 4.39 | 4.27 | H-ILAWKWAWWAWPP-NH2 |
| < 3.48 | < 3.48 | H-ILPWGWPWWPWPP-NH2 |
| 4.10 | 3.74 | H-ILPWKWPWWPWP-NH2 |
| 4.89 | 4.80 | H-ILPWKWPWWPWPP-NH2 |
| 3.67 | 3.73 | H-LPWKWPWWPWPP-NH2 |
